Measured values reported in patent publication US20240034736A1, “HSD17B13 INHIBITORS AND USES THEREOF” (FL2022-001, Inc., priority 2020, published 2024).

The compounds below were run against Recombinant human HSD17B13 enzyme (Homo sapiens (Human), UniProt Q7Z5P4) (assay: HSD17b13 NAD(P)H-Glo Biochemical Assay). Settings: 50 uM estradiol, 1 mM NAD+; read-out: HSD17β13 IC50.
Procedure: Recombinant human HSD17B13 enzyme. Substrate: estradiol (Sigma β-Estradiol E8875), 100 mM in DMSO. […] Assay buffer final concentration: 20 mM Tris pH7.4 with 0.002% Tween-20 and 0.02% BSA. […] Enzymatic activity detected by NAD(P)H-Glo™ Detection System (Promega G9062).
Inhibitor compounds were serially diluted in DMSO and then further diluted in assay buffer to a 10× concentration consisting of 1% DMSO.
HSD17b13 enzyme was diluted in 1× assay buffer to the desired enzyme concentration based on the specific activity of the enzyme lot. 20 uL of diluted enzyme was added to each well along with 2.5 uL of 10× inhibitor solution. Assay plate was incubated at RT for 20 minutes, and then 2.5 uL of a 10× substrate/cofactor mix was added to each well for a final concentration of 50 uM estradiol and 1 mMNAD+. Assay plate was incubated at 37° C. for 3 hours. NAD(P)H-Glo™ Detection System reagents were prepared according to manufacturer's specifications, and 25 uL was added to each well. After incubating for 1 hour at RT, luminescence was measured.

Chain of Recombinant human HSD17B13 enzyme (Q7Z5P4 20-300): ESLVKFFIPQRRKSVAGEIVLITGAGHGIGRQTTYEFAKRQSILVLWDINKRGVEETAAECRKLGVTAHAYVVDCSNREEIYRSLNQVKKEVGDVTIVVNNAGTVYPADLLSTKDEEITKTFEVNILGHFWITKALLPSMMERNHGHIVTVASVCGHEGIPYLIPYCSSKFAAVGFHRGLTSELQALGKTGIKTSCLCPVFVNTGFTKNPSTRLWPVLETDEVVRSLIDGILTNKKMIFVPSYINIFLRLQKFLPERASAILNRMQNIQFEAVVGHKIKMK

| SMILES | IC50 [nM] |
| --- | --- |
| CN(C)S(=O)(=O)c1ccc(-c2ccc3c(cnn3-c3ccc(F)c(O)c3)c2)cc1 [Compound 5.25, 4-(1-(4-Fluoro-3-hydroxyphenyl)-1H-indazol-5-yl)-N,N-dimethylbenzenesulfonamide] | 100 to 1000 |
| CS(=O)(=O)N1CCC(c2ccc3c(cnn3-c3cc(O)c(F)c(F)c3)c2)CC1 [Compound 27, 2,3-Difluoro-5-(5-(1-(methylsulfonyl)piperidin-4-yl)-1H-indazol-1-yl)phenol] | < 100 |
| Oc1ccc(-c2ncc3c(cnn3-c3ccc(F)c(O)c3)n2)c(Cl)c1 [Compound 5.27, 5-(5-(2-Chloro-4-hydroxyphenyl)-1H-pyrazolo[4,3-d]pyrimidin-1-yl)-2-fluorophenol] | 100 to 1000 |
| Cc1nn(-c2cc(C(F)(F)F)c(F)c(O)c2F)c2cc(F)c(N3CCOCC34CC4)nc12 [Compound 19.50, 2,6-Difluoro-3-(6-fluoro-3-methyl-5-(7-oxa-4-azaspiro[2.5]octan-4-yl)-1H-pyrazolo[4,3-b]pyridine-1-yl)-5-(trifluoromethyl)phenol] | < 100 |
| Oc1cc(-n2ncc3cc(-c4cccc(Cl)c4)ccc32)ccc1F [Compound 1.01, 5-(5-(3-Chlorophenyl)-1H-indazol-1-yl)-2-fluorophenol] | 100 to 1000 |
| Oc1cc(-n2ncc3cc(-c4ccc(O)c(Cl)c4)ncc32)ccc1F [Compound 4.13, 2-Chloro-4-(1-(4-fluoro-3-hydroxyphenyl)-1H-pyrazolo[3,4-c]pyridine-5-yl)phenol] | 100 to 1000 |
| CS(=O)(=O)N1CCN(c2cc3cn(-c4cc(O)c(F)c(Cl)c4)nc3cn2)CC1 [Compound 19.22, 3-Chloro-2-fluoro-5-(5-(4-(methylsulfonyl)piperazin-1-yl)-2H-pyrazolo[3,4-c]pyridine-2-yl)phenol] | 100 to 1000 |
| Oc1c(F)c(-n2nnc3cc(N4CCOCC45CC5)ncc32)cc(C(F)(F)F)c1F [Compound 21.59, 3-(6-(7-Oxa-4-azaspiro[2.5]-octan-4-yl)-3H-[1,2,3]triazolo-[4,5-c]pyridin-3-yl)-2,6-difluoro-5-(trifluoromethyl)-phenol] | 100 to 1000 |
| O=S(=O)(NC1CN(c2cc3cnn(-c4cc(O)c(F)c(F)c4)c3cc2Cl)C1)c1ccccc1 [Compound 21.34, N-(1-(6-Chloro-1-(3,4-difluoro-5-hydroxyphenyl)-1H-indazol-5-yl)azetidin-3-yl)benzene-sulfonamide] | 100 to 1000 |
| CC1(C)CC=C(c2ccc3nn(-c4cc(O)c(F)c(C(F)(F)F)c4)cc3c2)CC1 [Compound 18.02, 5-(5-(4,4-Dimethylcyclohex-1-en-1-yl)-2H-indazol-2-yl)-2-fluoro-3-(trifluoromethyl)phenol] | 100 to 1000 |
| NC(=O)c1ccc(-c2ccc3c(cnn3-c3ccc(F)c(O)c3)c2)c(Cl)c1 [Compound 13, 3-Chloro-4-(1-(4-fluoro-3-hydroxyphenyl)-1H-indazol-5-yl)benzamide] | 100 to 1000 |
| Cc1n[nH]c(C)c1-c1ccc2c(cnn2-c2ccc(F)c(O)c2)c1 [Compound 5.17, 5-(5-(3,5-Dimethyl-1H-pyrazol-4-yl)-1H-indazol-1-yl)-2-fluorophenol] | 100 to 1000 |
| COc1cccc(-c2ccc3c(cnn3-c3ccc(F)c(O)c3)c2)c1 [Compound 5.21, 2-Fluoro-5-(5-(3-methoxyphenyl)-1H-indazol-1-yl)phenol] | 1000 to 30000 |
| CC1(C)CC=C(c2ccc3c(cnn3-c3cc(O)c(F)c(C(F)(F)F)c3)c2)CC1 [Compound 18.01, 5-(5-(4,4-Dimethylcyclohex-1-en-1-yl)-1H-indazol-1-yl)-2-fluoro-3-(trifluoromethyl)phenol] | 100 to 1000 |
| Cc1nn(-c2cc(C(F)(F)F)c(F)c(O)c2F)c2cnc(N3CCOCC34CC4)nc12 [Compound 19.95, 2,6-Difluoro-3-(3-methyl-5-(7-oxa-4-azaspiro[2.5]octan-4-yl)-1H-pyrazolo[4,3-d]pyrimidin-1-yl)-5-(trifluoromethyl)phenol] | 100 to 1000 |
| Cc1nn(-c2cc(C(F)(F)F)c(F)c(O)c2F)c2cnc(N3CCOC4(CC4)C3)nc12 [Compound 19.81, 2,6-Difluoro-3-(3-methyl-5-(4-oxa-7-azaspiro[2.5]octan-7-yl)-1H-pyrazolo[4,3-d]pyrimidin-1-yl)-5-(trifluoromethyl)phenol] | < 100 |
| CC(C)S(=O)(=O)N1CCN(c2cc3cnn(-c4cc(O)c(F)c(F)c4)c3cc2Cl)CC1 [Compound 21.28, 5-(6-Chloro-5-(4-(isopropyl-sulfonyl)piperazin-1-yl)-1H-indazol-1-yl)-2,3-difluoro-phenol] | 100 to 1000 |

| SMILES | IC50 [nM] |
| --- | --- |
| Oc1cc(F)cc(-n2ncc3cc(-c4ccc(O)c(Cl)c4)ccc32)c1 [Compound 3, 2-Chloro-4-(1-(3-fluoro-5-hydroxyphenyl)-1H-indazol-5-yl)phenol] | 1000 to 30000 |
| Cc1nn(-c2cc(C(F)(F)F)c(F)c(O)c2F)c2cnc(N3CCN(S(C)(=O)=O)CC34CC4)cc12 [Compound 19.53, 2,6-Difluoro-3-(3-methyl-5-(7-(methylsulfonyl)-4,7-diazaspiro[2.5]octan-4-yl)-1H-pyrazolo[3,4-c]pyridine-1-yl)-5-(trifluoromethyl)phenol] | < 100 |
| Oc1cc(-n2ncc3cc(-c4ccc(OC(F)F)cc4Cl)ccc32)ccc1F [Compound 5.08, 5-(5-(2-Chloro-4-(difluoromethoxy)phenyl)-1H-indazol-1-yl)-2-fluorophenol] | 100 to 1000 |
| CS(=O)(=O)N1CCC(Oc2ccc3c(cnn3-c3cc(O)c(F)c(F)c3)c2)CC1 [Compound 25.01, 2,3-Difluoro-5-(5-((1-(methyl-sulfonyl)piperidin-4-yl)oxy)-1H-indazol-1-yl)phenol] | 1000 to 30000 |
| Cc1nn(-c2cc(C(F)(F)F)c(F)c(O)c2F)c2cnc(N3CCN(c4ccccc4)CC3)cc12 [Compound 19.63, 2,6-Difluoro-3-(3-methyl-5-(4-phenylpiperazin-1-yl)-1H-pyrazolo[3,4-c]pyridin-1-yl)-5-(trifluoromethyl)phenol] | 100 to 1000 |
| Cc1nn(-c2nc(C(F)(F)F)c(F)c(O)c2F)c2cnc(N3CCOCC34CC4)cc12 [Compound 19.119, 3,5-Difluoro-2-(3-methyl-5-(7-oxa-4-azaspiro[2.5]octan-4-yl)-1H-pyrazolo[3,4-c]pyridin-1-yl)-6-(trifluoromethyl)pyridin-4-ol] | 1000 to 30000 |
| Oc1ccc(-c2ccc3c(cnn3-c3ccc(C(F)(F)F)c(O)c3)c2)cc1Cl [Compound 3.02, 2-Chloro-4-(1-(3-hydroxy-4-(trifluoromethyl)phenyl)-1H-indazol-5-yl)phenol] | 1000 to 30000 |
| OCc1ccc(-c2ccc3c(cnn3-c3ccc(F)c(O)c3)c2)c(Cl)c1 [Compound 5.12, 5-(5-(2-Chloro-4-(hydroxymethyl)phenyl)-1H-indazol-1-yl)-2-fluorophenol] | 100 to 1000 |
| CS(=O)(=O)N1CCN(c2ccc3c(cnn3-c3cc(C(F)(F)F)cc(O)n3)c2)CC1 [Compound 31, 6-(5-(4-(Methylsulfonyl)piperazin-1-yl)-1H-indazol-1-yl)-4-(trifluoromethyl)pyridin-2-ol] | 100 to 1000 |
| Oc1cccc(-n2ncc3cc(-c4ccc(O)c(Cl)c4)ccc32)c1 [Compound 3.05, 2-Chloro-4-(1-(3-hydroxyphenyl)-1H-indazol-5-yl)phenol] | 1000 to 30000 |
| Cc1nn(-c2cc(C(F)(F)F)c(F)c(O)c2F)c2cnc(N3CCOCC34CCC4)cc12 [Compound 19.65, 2,6-Difluoro-3-(3-methyl-5-(8-oxa-5-azaspiro[3.5]nonan-5-yl)-1H-pyrazolo[3,4-c]pyridin-1-yl)-5-(trifluoromethyl)phenol] | < 100 |
| Oc1cc(-n2ncc3cc(-c4ccc(N5CCOCC5)cc4Cl)ccc32)ccc1F [Compound 5.09, 5-(5-(2-Chloro-4-morpholinophenyl)-1H-indazol-1-yl)-2-fluorophenol] | 1000 to 30000 |
| CNc1nn(-c2cc(C(F)(F)F)c(F)c(O)c2F)c2ccc(N(C)C3CCOCC3)cc12 [Compound 19.106, 2,6-Difluoro-3-(5-(methyl(tetrahydro-2H-pyran-4-yl)amino)-3-(methylamino)-1H-indazol-1-yl)-5-(trifluoromethyl)phenol] | 100 to 1000 |
| CS(=O)(=O)N1CCN(c2ccc3c(cnn3-c3cc(O)c(F)c(C(F)(F)F)c3)c2)C2(CC2)C1 [Compound 21.45, 2-Fluoro-5-(5-(7-(methyl-sulfonyl)-4,7-diazaspiro[2.5]-octan-4-yl)-1H-indazol-1-yl)-3-(trifluoromethyl)phenol] | 100 to 1000 |
| CS(=O)(=O)Nc1ccc(-c2ccc3c(cnn3-c3ccc(F)c(O)c3)c2)cc1 [Compound 4.02, N-(4-(1-(4-Fluoro-3-hydroxyphenyl)-1H-indazol-5-yl)phenyl)methanesulfonamide] | 100 to 1000 |
| Cc1nn(-c2cc(C(F)(F)F)c(F)c(O)c2F)c2ccc(N3CCOCC34CC4)cc12 [Compound 19.94, 2,6-Difluoro-3-(3-methyl-5-(7-oxa-4-azaspiro[2.5]octan-4-yl)-1H-indazol-1-yl)-5-(trifluoromethyl)phenol] | < 100 |
| CS(=O)(=O)N1CCN(c2cc3cnn(-c4cc(O)ccc4C#N)c3cn2)CC1 [Compound 19.41, 4-Hydroxy-2-(5-(4-(methylsulfonyl)piperazin-1-yl)-1H-pyrazolo[3,4-c]pyridine-1-yl)benzonitrile] | 1000 to 30000 |

Same assay, conditions: read-out: HSD17β13 inhibition at 30 uM

| SMILES | inhibition at 30 µM [%] |
| --- | --- |
| Cc1nn(-c2cc(O)ccc2C#N)c2cnc(N(C)C3CCOCC3)cc12 [Compound 19.61, 4-Hydroxy-2-(3-methyl-5-(methyl(tetrahydro-2H-pyran-4-yl)amino)-1H-pyrazolo[3,4-c]pyridin-1-yl)benzonitrile] | 55 |
